Test results: patent US20250034218A1, “ANTIMICROBIAL PEPTIDES” (BiomEdit, LLC, priority 2021, published 2025)
Ends that are not written are not given here.

Legend:
Giardia trophozoites = test: Giardia trophozoite test tube assay, light microscopy; assay type: cell-based; settings: AMP01 100 μM, FOR 5 μM
Procedure: Test tube with a confluent layer of trophozoites is treated with AMP01 (100 μM). Light microscopy, counting of detached dead or alive (i.e. motile) trophozoites is then conducted. Formononetin (5 μM; FOR) is used for comparison as a positive control.
The changes in morphology were still visible one day after the treatment and are depicted in FIG. 3 (photographs all taken at 100×). After 1 d, the trophozoites in the control tube (FIG. 3A) were fully alive (and overgrowing), as expected. […] The different sizes of the trophozoites can be noted by comparing the white circles. Similar effects were observed using cytotoxic anti-variant surface protein antibodies (Hemphil et al. 1996).

Giardia = Giardia plate assay, % of control (Table 3); assay type: cell-based; settings: plate G7
Excerpt: Data comparing AMP01 (wild type CAP 18 peptide (SEQ ID NO: 1) with various other agents is tabulated in Table 3. NTZ corresponds to nitazoxanide. ALB corresponds to albendazole.

M. haemolytica = assay type: cell-based, Mannheimia haemolytica; settings: plate assay, FIG. 2B
Procedure: (§1) CAP18 peptide (wild type peptide also herein designated as AMP01) has application and utility for multiple indications in livestock, poultry & aqua species. […] Cap18 peptide is active against viruses of significance for the animal industry, such as PRRSV (PRRS, swine) (FIG. 2C). […] FIG. 3 depicts activity of CAP18 peptide (AMP01) against Giardia.
(§2) Antimicrobial effect of CAP18 against BRD pathogens M. haemolytica and P. multocida was evaluated.

P. mutlocida = assay type: cell-based, Pasteurella multocida
Procedure: as §1, §2

[1] = system: porcine reproductive and respiratory syndrome virus (PRRSV); test: Inhibition of PRRS virus infection; assay type: cell-based; settings: 1:2 and 1:4 diluted
Procedure: Antibacterial peptide CAP18 was evaluated for activity inhibiting virus, particularly its antiviral effect on porcine reproductive and respiratory syndrome virus (PRRSV). Results are provided in Figure S. AMP01 polypeptide was evaluated at 1:2 and 1:4 diluted and shown to be effective.

Eimeria = test: Inhibition of Eimeria parasites; assay type: cell-based; settings: Eimeria (Coccidiosis, poultry)
Procedure: The effect of Cap 18 peptides and any variants thereof is tested on Eimeria. An exemplary study is provided with results depicted in FIG. 4. Three independent experiments were conducted with CAP18 peptides—designated Cap18a, Cap18b and Cap18c. The CAP18 peptides were compared with monensin as a positive control. Three independent experiments with monensin (designated Mona, Monb and Monc).

E. coli DH5 alpha = assay type: cell-based, Escherichia coli
Procedure: A MIC assay was set up using heat treated CAP18 variants in a 96-well plate. […] Appropriate controls (media only control, no CAP18 control) were included on the same plate. The plates were incubated at 37° C. for 24-48 hours and MIC for each variant was recorded. The experiment was repeated 3 times.

E. coli DH5alpha [2] = assay type: cell-based, Escherichia coli; settings: peptide treated with proteinase K at 37° C. before MIC assay
Procedure: CAP18 peptide variants single mutants were evaluated for resistance to proteinase K. Peptides were subjected to proteinase K treatment and then assessed for bacterial cell killing (against E. coli) in a MIC assay.
CAP18 variants were synthesized from GenScript, Inc, and solubilized in sterile purified water to a final concentration of 4 mg/ml. E. coli DH5alpha was grown overnight in 10 ml LB broth. Ten microliters of each CAP18 variant was treated with 2 μl of proteinase K (Qjagen, >600 mAU/ml) and incubated at 37° C. for 2 or 5 minutes in a PCR machine. The samples were then incubated at 98° C. for 5 minutes to inactivate proteinase K. An MIC assay was set up using proteinase K-treated CAP18 variants in a 96-well plate. Briefly, the peptides were serially diluted 2-fold in LB broth to achieve a final volume of 50 μl in each well and 50 μl of the E. coli DH5alpha culture adjusted to a concentration of 2×10^6 cells/ml was added into each well. Appropriate controls (media only control, no CAP18 control) were included on the same plate. The plates were incubated at 37° C. for 24-48 hours and MIC for each variant was recorded. The experiment was repeated 3 times.

E. coli DH5alpha [3] = assay type: cell-based, Escherichia coli; settings: peptide treated with trypsin at 37° C. before MIC assay
Procedure: CAP18 peptide variants single mutants were evaluated for resistance to trypsin. Peptides were subjected to trypsin protease treatment and then assessed for bacterial cell killing (against E. coli) in a MIC assay.
CAP18 variants were synthesized from GenScript, Inc, and solubilized in sterile purified water to a final concentration of 4 mg/ml. E. coli DH5alpha was grown overnight in 10 ml LB broth. Ten microliters of each CAP18 variant was treated with 2 μl (or 2 μl of the 10-fold diluted trypsin) of trypsin (0.25%, Sigma Aldrich) and incubated at 37° C. for 2 or 5 minutes in a PCR machine. The samples were then incubated at 98° C. for 5 minutes to inactivate trypsin. An MIC assay was set up using trypsin-treated CAP18 variants in a 96-well plate. Briefly, the peptides were serially diluted 2-fold in LB broth to achieve a final volume of 50 μl in each well and 50 μl of the E. coli DH5alpha culture adjusted to a concentration of 2×10^6 cells/ml was added into each well. Appropriate controls (media only control, no CAP18 control) were included on the same plate. The plates were incubated at 37° C. for 24-48 hours and MIC for each variant was recorded. The experiment was repeated 3 times.

[4] = system: Methanobacterium bryantii; test: In-vitro screening, growth of rumen methanogen; assay type: cell-based; settings: FIGS. 10A and 10B; BES as positive control
Excerpt: BES, a known methanogen inhibitor shown in FIG. 10C, was used as a positive control.

Y. ruckeri = settings: injection before exposure to Y. ruckeri; compared to non-treated fish; cited from earlier work
[5] = 90° C. for 30 minutes; cited from earlier work

GLRKRLRKFRNKIKEKLKKIGQKIQGLLPKLAPRTDY [AMP01]
detachment of trophozoites (Giardia trophozoites; after 1 h): nearly complete detachment | morphology and motility of detached trophozoites (Giardia trophozoites; after 1 h): crumbled, shrunken and immotile | state of trophozoites (Giardia trophozoites; after 1 d): dead, shrunken and started to disintegrate | % of control MV (Giardia; Conc 10 (uM or %)): 141.1% | % of control MV (Giardia; Conc 100 (uM or %)): 1.0% | MIC (M. haemolytica): 4 to 8 µg/mL | MIC (P. mutlocida): 4 to 8 µg/mL | antiviral effect on PRRSV [1]: effective | inhibiting activity of parasites (Eimeria): effective in inhibiting activity | Thermotolerance at 90 for 5 minutes (MIC, ug/ml) (E. coli DH5 alpha): 200 µg/mL | Resistance to proteinase K (MIC, ug/ml) (E. coli DH5alpha [2]): >400 µg/mL | Resistance to trypsin (MIC, ug/ml) (E. coli DH5alpha [3]): 25 µg/mL | growth of rumen methanogen [4]: inhibits the growth | mortality (Y. ruckeri): lower mortality | antimicrobial activity after heat treatment [5]: retain full antimicrobial activity
